≈ marks a conversion by molar mass, not a printed value. Like-named read-outs stand apart in the source and are kept apart here.
Experiments:
Bacillus subtilis 10707 = assay: Antibacterial activity, agar dilution method (MIC), Bacillus subtilis; type: cell-based; settings: pH 7.0, read-out: Minimum inhibitory concentration (MIC), BS
Method: (§1) Antibacterial activities of Compounds (I) against various microorganisms are shown in the following Table 5, in which the minimum inhibitory concentration MIC (μg/ml) was measured by the agar dilution method at a pH of 7.0.
(§2) In this table, the following abbreviations are used: SF-Streptococcus faecalis ATCC 10541; SA-Staphylococcus aureus ATCC6538P; BS-Bacillus subtilis 10707; PV-Proteus vulgaris ATCC6897; KP-Klebsiella pneumoniae ATCC10031.

[1] = tested on: Klebsiella pneumoniae ATCC10031; assay: Antibacterial activity, agar dilution method (MIC), Klebsiella pneumoniae; type: cell-based; settings: pH 7.0, read-out: Minimum inhibitory concentration (MIC), KP
Method: as §1, §2

[2] = tested on: Staphylococcus aureus ATCC6538P; assay: Antibacterial activity, agar dilution method (MIC), Staphylococcus aureus; type: cell-based; settings: pH 7.0, read-out: Minimum inhibitory concentration (MIC), SA
Method: as §1, §2

[3] = tested on: Proteus vulgaris ATCC6897; assay: Antibacterial activity, agar dilution method (MIC), Proteus vulgaris; type: cell-based; settings: pH 7.0, read-out: Minimum inhibitory concentration (MIC), PV
Method: as §1, §2

[4] = tested on: Streptococcus faecalis ATCC 10541; assay: Antibacterial activity, agar dilution method (MIC), Streptococcus faecalis; type: cell-based; settings: Enterococcus faecalis, ATCC10541, pH 7.0, read-out: Minimum inhibitory concentration (MIC), SF
Method: as §1, §2

peripheral leucocytes = assay: Effect upon peripheral leucocytes (bone marrow toxicity); type: in vivo, male mice (ddy strain); settings: minimum dose decreasing peripheral leucocytes to 4000/mm^3; tumour-bearing ddy mice, intraperitoneal, blood 4 days later
Method: (§3) Certain Compounds (I) and Sarcoma 180 solid tumour were used to determine, on each occasion, antitumour activity (ED50), acutee toxicity (LD50) and effect upon peripherical leucocytes (WBC4000), as shown Table 6.
of peripheral leucocytes to 4000/mm^3.
Sarcoma 180 solid tumour cells (5×10^6) were subcutaneously implanted under the skin of the right armpit of each mouse (body weight 20±2 g) of a group consisting of 5 male mice (ddy strain). 24 hours after this, a test compound was intraperitoneally administered to each animal. 4 days later, blood (0.02 ml) was collected from the suborbital plexus vein of each tumour-carrying animal. The collected sample of blood was dispersed in 9.98 ml of Cellkit Seven solution. One drop of saponin solution was added to the sample to dissolve erythrocytes and then a microcell counter was used to measure the number of leucocytes. On graph paper, the number of leucocytes was plotted on the ordinate using an arithmetic scale, and the dosage was plotted on the abscissa using a logarithmic scale to show the relationship of the dosage to the number of peripherical leucocytes, from which the value of WBC4000 viz. a value capable of giving 4000 peripheral leucocytes per mm^3 (about half of the corresponding value in normal mice) was obtained.

Acute toxicity = settings: mouse, in vivo, ip; ddy mice, single abdominal administration, 14 days observation, Behrens-Korber's method
Description: as §3
The test compound was abdominally administered once to ddy mice, each group consisting of 5 animals.

Sarcoma 180 solid tumour = assay: Antitumour activity against Sarcoma 180 solid tumour; type: in vivo, ddy male mouse; settings: for ED50: Mus musculus, Sarcoma-180, iv, 168 h; for C.I. (LD50/ED50): chemotherapeutic index LD50/ED50, Sarcoma 180, ddy mice
Description: as §3
5×10^6 cells of Sarcoma 180 solid tumour were abdominally implanted into a ddy mouce. 7 days after this, the cells were collected from the ascites fluid. The cells were washed once with physiological saline under sterile conditions and suspended in physiological saline to obtain a cell suspension containing 5×10^7 cells/ml, of which 0.1 ml was implanted into a ddy male mouce (body weight 20±2 g) under the skin of the right armpit. The test compound was dissolved in physiological saline or the same solution containing Tween 80. 24 hours after implantation of the tumour cells, 0.1-0.2 ml of the solution containing the test compound was administered to the tail vein of each animal in the test group consisting of 5 animals. 7 days after the implantation, the major axis (a) and minor axis (b) of the tumour were measured to calculate the volume of the tumour as ("a"×"b^2 ")/2. The antitumour effect was indicated by T/C which is the ratio of the tumour volume in the test animals to the corresponding volume of the control (untreated) animals.
ED50 denotes the dosage capable of decreasing the volume of Sarcoma 180 solid tumour to 50% of the corresponding volume of the control animals. T/C ratios and the dose were respectively plotted on the ordinate using an arithmetic scale and on the abscissa using a logarithmic scale, the relationship between the dosage and the T/C ratio being converted to a straight line by the least squares method. From the straight tropic line thus-obtained, the dosage corresponding to a T/C=0.5 viz. ED50 was determined.

Water-solubility = type: physicochemical
[5] = dose giving T/C=0.5 tumour volume, single tail vein administration 24 hours after implantation, measured 7 days after implantation, read-out: ED50

Row | Compound | MIC (Bacillus subtilis 10707) [µg/mL] | MIC [1] [µg/mL] | MIC [2] [µg/mL] | MIC [3] [µg/mL] | MIC [4] [µg/mL] | WBC4000 (peripheral leucocytes) [mg/kg] | LD50 at 336 h (Acute toxicity) [mg/kg] | ED50 (Sarcoma 180 solid tumour; [5]) [mg/kg] | C.I. (LD50/ED50) (Sarcoma 180 solid tumour) | solubility (Water-solubility) [mg/mL] | ED50 (Sarcoma 180 solid tumour) [mg/kg]
1 | CO[C@@]12[C@H](COC(N)=O)C3=C(C(=O)C(C)=C(N=S(c4ccccc4)c4ccccc4)C3=O)N1C[C@@H]1N[C@@H]12 [Compound 1, 7-demethoxy-7-diphenylsulfiliminomitomycin A] | < 0.005 | 0.16 (≈ 0.309 µM) | 0.01 (≈ 0.0193 µM) | 0.63 (≈ 1.21 µM) | 0.02 (≈ 0.0386 µM) |  |  |  |  |  | 
2 | CC1=C(N=S(c2ccccc2)c2ccccc2)C(=O)C2=C(C1=O)N1C[C@H]3[C@H](N3C)[C@]1(O)[C@H]2COC(N)=O (stereo partly shown) [Compound 2] | 0.2 (≈ 0.386 µM) | 25 (≈ 48.2 µM) | 0.78 (≈ 1.5 µM) |  | 0.78 (≈ 1.5 µM) | > 200 | > 200 | 89.1 | > 2.2 |  | 
3 | C=C1C2=C(C(=O)C(C)=C(N=S(c3ccccc3)c3ccccc3)C2=O)N2C[C@H]3[C@H](N3C)[C@]12O (stereo partly shown) [Compound 3] | 0.63 (≈ 1.38 µM) |  |  |  |  | > 200 | > 200 | 132 | > 1.5 |  | 
4 | CO[C@@]12[C@H](COC(N)=O)C3=C(C(=O)C(C)=C(N=S(C)c4ccccc4)C3=O)N1C[C@@H]1N[C@@H]12 (stereo partly shown) [Compound 5, (E)-7-demethoxy-7-methylphenylsulfilimino mitomycin A] |  |  |  |  |  | 4.1 | 15 | 2.7 | 5.6 |  | 
5 | CCS(CC)=NC1=C(C)C(=O)C2=C(C1=O)[C@@H](COC(N)=O)[C@@]1(OC)[C@H]3N[C@H]3CN21 [Compound 6] | 0.02 (≈ 0.0473 µM) | 0.039 (≈ 0.0923 µM) | 0.039 (≈ 0.0923 µM) | 0.039 (≈ 0.0923 µM) | 0.078 (≈ 0.185 µM) | 5.6 | 9.4 | 2.5 | 3.8 | > 40 | 
6 | CCS(CC)=NC1=C(C)C(=O)C2=C(C1=O)[C@H](COC(N)=O)[C@@]1(O)[C@@H]3[C@H](CN21)N3C (stereo partly shown) [Compound 7] | 5 (≈ 11.8 µM) | 10 (≈ 23.7 µM) | 10 (≈ 23.7 µM) | 20 (≈ 47.3 µM) | 20 (≈ 47.3 µM) |  |  |  |  |  | 
7 | CO[C@@]12[C@H](COC(N)=O)C3=C(C(=O)C(C)=C(N=P(c4ccccc4)(c4ccccc4)c4ccccc4)C3=O)N1C[C@@H]1N[C@@H]12 [Compound 9, 7-demethoxy-7-triphenylphosphiniminomitomycin A] | 3.1 (≈ 5.21 µM) | 13 (≈ 21.9 µM) | 13 (≈ 21.9 µM) | 25 (≈ 42 µM) | 13 (≈ 21.9 µM) | > 100 | > 100 |  | ≥ 1.0 |  | 100

— patent publication US4820824A, “Mitomaycin compounds” (Kyowa Hakko Kogyo Kabushiki Kaisha, priority 1986, dated 1989)
